Patent US8518903B2, “Use of toll-like receptor-9 agonists” (University of Pittsburgh—of the Commonwealth System of …, priority 2007, dated 2013)

What was measured:
[1] = test system: enterocytes; experiment: LPS-mediated NF-κB (p65) translocation in enterocytes, with and without TLR9 siRNA knock-down; format: cell-based
Protocol: FIG. 7A-E. LPS-mediated translocation in enterocytes which are either (A) untreated or treated with (B) 50 μg/ml LPS; (C) 50 μg/ml LPS+10 μM CpG; or (D) 10 μM CpG. (E) Bar graph showing the nuclear:cytoplasmic ratio for NF-κB in (A)-(D).
FIG. 9A-F. CpG-DNA reduces TLR4 signaling through TLR9 in enterocytes. (A) Western blot showing the amounts of TLR9 protein relative to actin in untreated enterocytes (Ctrl) or in enterocytes treated with 0.084 μM non-specific siRNA or siRNA specific for TLR9. (B)-(E) are immunofluorescence studies showing the relative amounts of p65 in the enterocyte nucleus versus its cytoplasm, when either (B) untreated or treated with (C) 50 μg/ml LPS; (D) 50 μg/ml LPS+10 μM CpG (in the context of normal TLR9 levels) or (E) 50 μg/ml LPS+10 μM CpG (in the context of TLR9 knockdown by siRNA). (E) Bar graph showing the results of (B)-(E).
A second series of experiments was designed to study the consequences of the TLR4 activator LPS and the TLR9 activator CpG on the mediator of activated TLR4, NFκB. As shown by comparing FIGS. 7A and B, LPS causes NFκB to translocate into the nucleus. The extent of translocation caused by LPS is decreased by co-exposure to CpG (FIGS. 7C and E).
All the foregoing three series of experiments have shown that CpG (an activator of TLR9) inhibited the effects of TLR4 activation, including its role in promoting inflammation. […]

[2] = test system: murine intestinal mucosa; experiment: LPS-dependent signaling and inflammation in the murine intestinal mucosa in vivo; set-up: species or system mouse; conditions: LPS + CpG vs LPS
Description: FIG. 10. Experimental design to assess whether TLR9 activation affects TLR4-mediated inflammation in vivo.
(A). Western blot showing levels of signaling molecules phospho-p38 and phospho-ERK (relative to actin) in mice which were either untreated (Ctrl) or treated with LPS, LPS+CpG, or CpG. (B) Bar graph showing serum levels of the inflammatory cytokine IL-6 in mice which were either untreated (Ctrl) or treated with LPS, LPS+CpG, or CpG.
Experiments were then designed to determine whether the above phenomena, observed in vitro, could be confirmed in vivo (see FIG. 10).

[3] = test system: murine model of endotoxemia; experiment: Enterocyte apoptosis (caspase 3) in murine model of endotoxemia; format: in vivo, mouse; conditions: 5 mg/kg LPS + 1 mg/kg CpG-DNA vs LPS, 3 hours
Protocol: (A) Control mice (injected with saline). (B) Mice injected with 5 mg/kg of LPS. (C) Mice injected with 5 mg/kg of LPS and 1 mg/kg of CpG. (D-G) Immunohistochemical staining of terminal ileum from newborn mice that were either breast fed (“control”) or induced to develop NEC (“NEC”). Sections were stained for caspase 3 as a marker of apoptosis and enterocyte loss; positive staining is indicated by a small arrowhead. (D) Control injected with saline. (E) NEC injected with saline. (F) Control injected with 1 mg/kg CpG-DNA daily for four days. (G) NEC injected with 1 mg/kg CpG-DNA daily for four days. (H) Bar graph summarizing results, showing percent apoptosis in terminal ileum as depicted in (D)-(G).
Induction of necrotizing enterocolitis. All mice were housed and cared for at Rangos Research Center, Children's Hospital of Pittsburgh. All experiments were approved by the Children's Hospital of Pittsburgh Animal Care Committee and the Institutional Review Board of the University of Pittsburgh (protocol 45-06). Swiss-Webster (CfW) and C57/B1-6 mice were obtained from Jackson Laboratories (Jackson Laboratory, Bar Harbor, Me.). Endotoxemia was induced in 2 week old C57/B16 or CpG1 (TLR9-mutant) mice by the intraperitoneal injection of LPS (Escherichia coli 0111:B4 purified by gel-filtration chromatography, >99% pure, 5 mg/kg, Sigma-Aldrich, St. Louis, Mo.). […]

Question: For 5′-TCCATGACGTTCCTGACGTT-3′ [CpG-DNA], which “attenuating effect of CpG on translocation of NFκB subunit p65” value ([1]; enterocytes with TLR9 expression suppressed by siRNA, 50 μg/ml LPS + 10 μM CpG) is on record?
Answer: virtually eliminated

Question: What about the “extent of NFκB translocation into the nucleus caused by LPS” value ([1]; enterocytes, 50 μg/ml LPS + 10 μM CpG vs LPS alone) of the same substance?
Answer: decreased

Question: What about the “serum IL-6 level” value ([2]; mice) of the same substance?
Answer: attenuated

Question: And the “level of phosphorylated ERK (LPS-dependent signaling)” value ([2]; murine intestinal mucosa)?
Answer: attenuated

Question: And the “level of phosphorylated p38 (LPS-dependent signaling)” value ([2]; murine intestinal mucosa)?
Answer: attenuated

Question: What about the “apoptosis in enterocytes of terminal ileum (caspase 3)” value [3] of the same substance?
Answer: substantially reduced
